Results taken from patent US12351559B2 (Biohaven Therapeutics Ltd., priority 2014, dated 2025).

Target: T1, Kv7.2/7.3 (Homo sapiens, UniProt O43525+O43526)
T1 construct: host or cells: HEK cells, tetracycline-inducible expression
Assay: Kv7.2/7.3 activation assay, QPatch planar patch-clamp, single concentration screen
Assay type: cell-based
Design: key: <1.2-fold increase over baseline (−); +/−: as a range from <1.2-fold increase over baseline (−) up to >6-fold increase over baseline (+++); as a range from <1.2-fold increase over baseline (−) up to >6-fold increase over baseline (+++); as a range from <1.2-fold increase over baseline (−) up to >6-fold increase over baseline (+++); >6-fold increase over baseline (+++)
Conditions: Kv7.2/Kv7.3 co-expressing HEK cells, compound 3 μM, steady-state current at end of 2 s pulse to −30 mV

SMILES | Kv7.2/7.3 Activity: increase in current over baseline
Cc1cc2nc(NC(=O)C[C@@](C)(O)c3ccccc3)n(C(C)(C)C)c2cc1C#N [Example 120, (R)-N-(1-(tert-butyl)-6-cyano-5-methyl-1H-benzo[d]imidazol-2-yl)-3-hydroxy-3-phenylbutanamide] | +
Cc1cc2nc(NC(=O)C[C@](C)(O)c3ccc(F)cc3)n(C(C)(C)C)c2cc1C#N [Example 121, (S)-N-(1-(tert-butyl)-6-cyano-5-methyl-1H-benzo[d]imidazol-2-yl)-3-(4-fluorophenyl)-3-hydroxybutanamide] | +
Cc1cc2nc(NC(=O)C[C@](C)(O)c3ccccc3F)n(C(C)(C)C)c2cc1C#N [Example 122, (S)-N-(1-(tert-butyl)-6-cyano-5-methyl-1H-benzo[d]imidazol-2-yl)-3-(2-fluorophenyl)-3-hydroxybutanamide] | ++
Cc1cc2nc(NC(=O)C[C@](C)(O)c3ccccc3)n(C3CCC3)c2cc1C#N [Example 123, (S)-N-(6-cyano-1-cyclobutyl-5-methyl-1H-benzo[d]imidazol-2-yl)-3-hydroxy-3-phenylbutanamide] | +/−
Cc1cc2nc(NC(=O)C[C@@](C)(O)c3ccccc3)n(C3CCC3)c2cc1C#N [Example 124, (R)-N-(6-cyano-1-cyclobutyl-5-methyl-1H-benzo[d]imidazol-2-yl)-3-hydroxy-3-phenylbutanamide] | +/−
Cc1cc2nc(NC(=O)C[C@](C)(O)c3ccc(F)cc3)n(C3CCC3)c2cc1C#N [Example 125, (S)-N-(6-cyano-1-cyclobutyl-5-methyl-1H-benzo[d]imidazol-2-yl)-3-(4-fluorophenyl)-3-hydroxybutanamide] | +/−
Cc1cc2nc(NC(=O)C[C@](C)(O)c3ccccc3F)n(C3CCC3)c2cc1C#N [Example 126, (S)-N-(6-cyano-1-cyclobutyl-5-methyl-1H-benzo[d]imidazol-2-yl)-3-(2-fluorophenyl)-3-hydroxybutanamide] | ++
Cc1cc2nc(NC(=O)CC(C)(C)C)n(C(C)(C)C)c2cc1C#N [Example 127, N-(1-(tert-butyl)-6-cyano-5-methyl-1H-benzo[d]imidazol-2-yl)-3,3-dimethylbutanamide] | +
Cc1cc2nc(NC(=O)CC(C)(C)O)n(C(C)(C)C)c2cc1C#N [Example 128, N-(1-(tert-butyl)-6-cyano-5-methyl-1H-benzo[d]imidazol-2-yl)-3-hydroxy-3-methylbutanamide] | +/−
Cc1cc2nc(NC(=O)C3CC(F)(F)C3)n(C(C)(C)C)c2cc1C#N [Example 129, N-(1-(tert-butyl)-6-cyano-5-methyl-1H-benzo[d]imidazol-2-yl)-3,3-difluorocyclobutane-1-carboxamide] | +/−
Cc1cc2nc(NC(=O)CC(C)(C)O)n(C3CCC3)c2cc1C#N [Example 130, N-(6-cyano-1-cyclobutyl-5-methyl-1H-benzo[d]imidazol-2-yl)-3-hydroxy-3-methylbutanamide] | +/−
CC(C)(O)c1ccc2nc(NC(=O)CC(O)(C(F)(F)F)C(F)(F)F)n(-c3ccc(F)cc3)c2c1 [Example 131, 4,4,4-trifluoro-N-(1-(4-fluorophenyl)-6-(2-hydroxypropan-2-yl)-1H-benzo[d]imidazol-2-yl)-3-hydroxy-3-(trifluoromethyl)butanamide] | +/−
C[C@@](O)(CC(=O)Nc1nc2cc(C(F)(F)F)cc(F)c2n1C1CCC1)C(F)(F)F [Example 132, (R)-N-(1-cyclobutyl-7-fluoro-5-(trifluoromethyl)-1H-benzo[d]imidazol-2-yl)-4,4,4-trifluoro-3-hydroxy-3-methylbutanamide] | +/−
CC(C)(O)CC(=O)Nc1nc2cc(C(F)(F)F)cc(F)c2n1C1CCC1 [Example 133, N-(1-cyclobutyl-7-fluoro-5-(trifluoromethyl)-1H-benzo[d]imidazol-2-yl)-3-hydroxy-3-methylbutanamide] | +
Cc1cc2nc(NC(=O)C[C@](C)(O)C(F)(F)F)n(C(C)(C)C)c2cc1C#N [Example 134, (S)-N-(1-(tert-butyl)-6-cyano-5-methyl-1H-benzo[d]imidazol-2-yl)-4,4,4-trifluoro-3-hydroxy-3-methylbutanamide] | +/−
Cc1cc2nc(NC(=O)C[C@@](C)(O)C(F)(F)F)n(C(C)(C)C)c2cc1C#N [Example 135, (R)-N-(1-(tert-butyl)-6-cyano-5-methyl-1H-benzo[d]imidazol-2-yl)-4,4,4-trifluoro-3-hydroxy-3-methylbutanamide] | +/−

The next lines start with the values.

Kv7.2/7.3 Activity: increase in current over baseline | SMILES
+ | CC(C)(O)CC(=O)Nc1nc2ccc(C(F)(F)F)cc2n1-c1cc(F)cc(F)c1 [Example 136, N-(1-(3,5-difluorophenyl)-6-(trifluoromethyl)-1H-benzo[d]imidazol-2-yl)-3-hydroxy-3-methylbutanamide]
+ | CC(C)(O)CC(=O)Nc1nc2ccc(C(F)(F)F)cc2n1-c1ccc(OC(F)(F)F)cc1 [Example 137, 3-hydroxy-3-methyl-N-(1-(4-(trifluoromethoxy)phenyl)-6-(trifluoromethyl)-1H-benzo[d]imidazol-2-yl)butanamide]
+ | CC1(n2c(NC(=O)C[C@](C)(O)c3ccc(F)cc3)nc3ccc(C#N)cc32)CCC1 [Example 138, (S)-N-(6-cyano-1-(1-methylcyclobutyl)-1H-benzo[d]imidazol-2-yl)-3-(4-fluorophenyl)-3-hydroxybutanamide]
+ | CC1(n2c(NC(=O)C[C@](C)(O)c3ccccc3Cl)nc3ccc(C#N)cc32)CCC1 [Example 139, (S)-3-(2-chlorophenyl)-N-(6-cyano-1-(1-methylcyclobutyl)-1H-benzo[d]imidazol-2-yl)-3-hydroxybutanamide]
+/− | CC1(n2c(NC(=O)C[C@](C)(O)c3ccc(Cl)cc3)nc3ccc(C#N)cc32)CCC1 [Example 140, (S)-3-(4-chlorophenyl)-N-(6-cyano-1-(1-methylcyclobutyl)-1H-benzo[d]imidazol-2-yl)-3-hydroxybutanamide]
+ | O=C(CC1(O)CCC1)Nc1nc2ccc(C(F)(F)F)cc2n1-c1cc(F)cc(F)c1 [Example 141, N-(1-(3,5-difluorophenyl)-6-(trifluoromethyl)-1H-benzo[d]imidazol-2-yl)-2-(1-hydroxycyclobutyl)acetamide]
++ | O=C(CC1(O)CCC1)Nc1nc2ccc(C(F)(F)F)cc2n1-c1ccc(OC(F)(F)F)cc1 [Example 142, 2-(1-hydroxycyclobutyl)-N-(1-(4-(trifluoromethoxy)phenyl)-6-(trifluoromethyl)-1H-benzo[d]imidazol-2-yl)acetamide]
++ | CC(C)(O)CC(=O)Nc1nc2ccc(C(F)(F)F)cc2n1-c1ccc(F)c(F)c1 [Example 143, N-(1-(3,4-difluorophenyl)-6-(trifluoromethyl)-1H-benzo[d]imidazol-2-yl)-3-hydroxy-3-methylbutanamide]
+ | CC(C)(O)CC(=O)Nc1nc2ccc(C(F)(F)F)cc2n1-c1ccc(OC(F)(F)F)c(F)c1 [Example 144, N-(1-(3-fluoro-4-(trifluoromethoxy)phenyl)-6-(trifluoromethyl)-1H-benzo[d]imidazol-2-yl)-3-hydroxy-3-methylbutanamide]
++ | O=C(CC1(O)CCC1)Nc1nc2ccc(C(F)(F)F)cc2n1-c1ccc(OC(F)(F)F)c(F)c1 [Example 145, N-(1-(3-fluoro-4-(trifluoromethoxy)phenyl)-6-(trifluoromethyl)-1H-benzo[d]imidazol-2-yl)-2-(1-hydroxycyclobutyl)acetamide]
